The results in this text go back to patent US20160355530A1, “HEPATITIS C INHIBITORS AND USES THEREOF” (AbbVie Inc., priority 2010, published 2016).

pEC50, pIC50: −log10 of the molar value. Like-named read-outs stand apart in the source and are kept apart here.

Assay [1] has as its system chimeric replicon with genotype 4a NS5B. Briefly: microbe, parasite or virus in culture. The class given is cell-based, HCV genotype 4a. Particulars: Hepatitis C virus, read-out: 4a chimera 5% FBS EC50.
For assay [2], the system named is HCV 1b-BB7 subgenomic replicon. Briefly: microbe, parasite or virus in culture. The class given is cell-based, HCV genotype 1b. Particulars: Hepatitis C virus, stable replicon.
Assay [3] has as its system chimeric replicon with 2a-J6CF-derived NS5B. As to the kind of experiment: microbe, parasite or virus in culture. The class given is cell-based, HCV genotype 2a. Particulars: Hepatitis C virus, read-out: 2a chimera 5% FBS EC50.
Assay [4] concerns chimeric replicon with genotype 2b NS5B. As to the kind of experiment: microbe, parasite or virus in culture. The class given is cell-based, HCV genotype 2b. Particulars: Hepatitis C virus, read-out: 2b chimera 5% FBS EC50.
Assay [5] has as its target T1, HCV NS5B polymerase 1a-H77 (Hepatitis C virus genotype 1a, UniProt P27958).
T1 construct: six-histidine tag; made in house; host or cells: E. coli
As to the kind of experiment: biochemical. Also noted: species or system HCV genotype 1a. Particulars: enzyme, strain 1a H77; read-out: HCV Polymerase Strain 1a H77 IC50. A digest of the protocol: (§1)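 E. coli-expressed NS5B (residues 1-570, His-tagged) transcribed a 2.1 kb HCV 1b negative-strand 3′-end RNA template (5 nM) with 20 μM CTP, 20 μM ATP and 0.284 μM [3H]UTP for 3 h at 30° C. Spermine-precipitated RNA was filter-captured and counted by scintillation; IC50 from nonlinear regression.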

Assay [6] has as its system HCV NS5B polymerase 1a-H77-C316Y. Briefly: biochemical. Particulars: ratio of enzyme IC50s, 1a H77-C316Y / 1a H77. Also on record: species or system HCV genotype 1a. A digest of the protocol: as §1
The target of assay [7] is T2, HCV NS5B polymerase 1a-H77-C316Y (Hepatitis C virus genotype 1a, UniProt P27958, C2736Y).
T2 construct: six-histidine tag; made in house; host or cells: E. coli
Briefly: biochemical. Also on record: species or system HCV genotype 1a. A digest of the protocol: as §1

Assay [8] deals with T3, HCV NS5B polymerase 1b BK strain (Hepatitis C virus genotype 1b, UniProt P26663).
T3 construct: six-histidine tag; made in house; host or cells: E. coli
Briefly: HCV NS5B polymerase enzymatic inhibition assay, strain 1b BK. The class given is biochemical. Particulars: enzyme, strain 1b BK; read-out: HCV Polymerase Strain 1b BK IC50. A digest of the protocol: as §1

Assay [9] deals with HCV 1a-H77-C316Y transient subgenomic replicon in Huh-7 derived cell line. Briefly: microbe, parasite or virus in culture. The class given is cell-based, HCV genotype 1a. Particulars: for pEC50: Hepatitis C virus, Huh-7, read-out: Transient Replicon 1a H77-C316Y 5% FBS EC50; for Transient Replicon Fold Resistance C316Y/1a: ratio of transient replicon EC50s, C316Y / 1a H77. A digest of the protocol: (§2)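 Subgenomic replicon RNA (no Neo gene) electroporated into Huh-7-derived cells, plated at 5×10^3 cells/well; a 4 h plate gauged transfection efficiency. Cells exposed to 3-fold compound dilutions (0.5% DMSO) for 4 days at 37° C, then lysed for luciferase readout; EC50 calculated.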
For orientation: Replicon systems follow genome replication, usually without infectious particles.

The subject of assay [10] is HCV 1a-H77 transient subgenomic replicon in Huh-7 derived cell line. Briefly: microbe, parasite or virus in culture. The class given is cell-based, HCV genotype 1a. Particulars: Hepatitis C virus, Huh-7; transient replicon, 5% FBS; read-out: Transient Replicon 1a H77 5% FBS EC50. A digest of the protocol:
as §2

Assay [11] relates to HCV 1a-H77 subgenomic replicon. As to the kind of experiment: microbe, parasite or virus in culture. Particulars: Hepatitis C virus, stable replicon. The class given is cell-based, HCV genotype 1a.
Assay [12] deals with chimeric replicon with genotype 3a NS5B. As to the kind of experiment: microbe, parasite or virus in culture. The class given is cell-based, HCV genotype 3a. Particulars: Hepatitis C virus, read-out: 3a chimera 5% FBS EC50.
Where [13] appears, read: strain 1b BB7, 5% FBS + 40% human plasma, read-out: 1b BB7 5% FBS + 40% Human Plasma EC50.
The mark [14] stands for this setting: strain 1b BB7, 5% FBS, no human plasma, read-out: 1b BB7 5% FBS EC50.
[15] abbreviates: strain 1b BB7, 5% FBS, read-out: 1b BB7 5% FBS EC50.
Where [16] appears, read: 5% FBS, absence of human plasma, read-out: Stable Replicon 1a H77 5% FBS EC50.
The mark [17] stands for this setting: strain 1a H77, 5% FBS + 40% human plasma, read-out: 1a H77 5% FBS + 40% Human Plasma EC50.
Where [18] appears, read: strain 1a H77, 5% FBS, no human plasma, read-out: 1a H77 5% FBS EC50.
The mark [19] stands for this setting: strain 1a H77, 5% FBS, read-out: 1a H77 5% FBS EC50.

T1 sequence (P27958 2421-2990): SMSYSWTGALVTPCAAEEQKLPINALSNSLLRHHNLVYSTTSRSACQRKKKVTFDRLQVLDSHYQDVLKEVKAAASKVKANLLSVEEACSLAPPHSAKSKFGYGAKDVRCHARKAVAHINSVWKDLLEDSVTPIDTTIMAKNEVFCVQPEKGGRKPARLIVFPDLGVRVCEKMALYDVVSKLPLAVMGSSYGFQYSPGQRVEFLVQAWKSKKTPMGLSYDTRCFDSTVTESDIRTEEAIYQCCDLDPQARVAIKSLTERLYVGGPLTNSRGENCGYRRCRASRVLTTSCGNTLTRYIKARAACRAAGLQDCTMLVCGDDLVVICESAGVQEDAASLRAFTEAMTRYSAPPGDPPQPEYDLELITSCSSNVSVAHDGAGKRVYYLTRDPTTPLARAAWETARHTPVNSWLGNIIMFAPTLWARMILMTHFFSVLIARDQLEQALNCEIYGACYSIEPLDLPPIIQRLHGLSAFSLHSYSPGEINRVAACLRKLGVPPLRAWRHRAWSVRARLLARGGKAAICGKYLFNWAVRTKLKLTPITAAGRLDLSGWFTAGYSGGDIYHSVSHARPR
T3 sequence (P26663 2420-2989): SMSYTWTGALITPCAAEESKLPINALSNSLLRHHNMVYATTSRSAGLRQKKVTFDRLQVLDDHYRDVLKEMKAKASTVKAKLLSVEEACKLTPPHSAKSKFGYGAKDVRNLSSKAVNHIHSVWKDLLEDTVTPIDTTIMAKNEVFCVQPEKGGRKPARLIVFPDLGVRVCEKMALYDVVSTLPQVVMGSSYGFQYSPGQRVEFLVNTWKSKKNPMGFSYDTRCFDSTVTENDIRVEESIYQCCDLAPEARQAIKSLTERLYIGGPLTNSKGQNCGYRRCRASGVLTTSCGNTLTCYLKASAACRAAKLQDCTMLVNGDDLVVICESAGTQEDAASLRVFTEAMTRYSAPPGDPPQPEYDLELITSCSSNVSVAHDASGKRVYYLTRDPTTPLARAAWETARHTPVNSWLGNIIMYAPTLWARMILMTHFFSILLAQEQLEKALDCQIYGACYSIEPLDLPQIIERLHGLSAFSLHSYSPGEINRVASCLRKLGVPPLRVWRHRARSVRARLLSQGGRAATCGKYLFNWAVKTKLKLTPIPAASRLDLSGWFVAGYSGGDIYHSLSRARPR
T2 sequence (P27958 2421-2990 C2736Y): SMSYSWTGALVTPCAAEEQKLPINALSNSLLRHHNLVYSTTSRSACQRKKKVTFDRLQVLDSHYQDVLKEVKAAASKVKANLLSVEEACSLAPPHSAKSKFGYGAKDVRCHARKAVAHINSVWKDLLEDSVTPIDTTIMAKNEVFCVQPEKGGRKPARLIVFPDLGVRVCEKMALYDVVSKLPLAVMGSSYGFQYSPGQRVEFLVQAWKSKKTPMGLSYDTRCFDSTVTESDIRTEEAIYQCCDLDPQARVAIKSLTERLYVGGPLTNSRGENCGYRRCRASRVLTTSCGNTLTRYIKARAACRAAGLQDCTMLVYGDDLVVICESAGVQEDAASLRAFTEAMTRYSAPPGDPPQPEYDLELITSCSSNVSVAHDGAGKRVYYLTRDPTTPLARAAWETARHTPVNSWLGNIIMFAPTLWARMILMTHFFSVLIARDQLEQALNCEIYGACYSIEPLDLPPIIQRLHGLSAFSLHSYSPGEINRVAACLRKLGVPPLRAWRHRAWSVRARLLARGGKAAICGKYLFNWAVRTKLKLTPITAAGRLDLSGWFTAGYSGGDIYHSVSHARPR

By pEC50 is commonly meant the EC50 on a negative log10 scale, so that one unit is a factor of ten. By pIC50 is commonly meant the negative decadic logarithm of the IC50, by convention in mol/L. For `CS(=O)(=O)CCCCN(c1cc2oc(-c3ccc(F)cc3)c(C3=NOCCN3)c2cc1C1CC1)S(C)(=O)=O` [Example 122, N-[5-cyclopropyl-3-(5,6-dihydro-4H-1,2,4-oxadiazin-3-yl)-2-(4-fluorophenyl)-1-benzofuran-6-yl]-N-[4-(methylsulfonyl)butyl]methanesulfonamide], the pEC50 is 7.08 in assay [1]; 7.09 in [2] (setting [13]); 7.96 in assay [2] (setting [14]); 7.96 in [2] (setting [15]); 6.89 in assay [3]; 6.90 in assay [4]. Further, the pEC50 was 7.21 in assay [9]; 8.17 in assay [10]; 8.08 in [11] (setting [16]); 7.30 in assay [11] (setting [17]); 8.08 in assay [11] (setting [18]); 8.08 in assay [11] (setting [19]). In addition, the negative logarithm of the EC50 (pEC50) in assay [12] was 7.49. The values for the pIC50 in [5], in [7] and in assay [8] were 8.16, 7.34 and 7.60, respectively. The “C316Y/1a Fold Resistance” value in assay [6] stood at 7 fold. The “Transient Replicon Fold Resistance C316Y/1a” value in assay [9] worked out at 9 fold.
As for `CCS(=O)(=O)CCN(c1cc2oc(-c3ccc(F)cc3)c(-c3ncc[nH]3)c2cc1C1CC1)S(C)(=O)=O` [Example 96, N-[5-cyclopropyl-2-(4-fluorophenyl)-3-(1H-imidazol-2-yl)-1-benzofuran-6-yl]-N-[2-(ethylsulfonyl)ethyl]methanesulfonamide], the negative-log EC50 (pEC50) in assay [1] was 7.38; in assay [2] (setting [13]), 7.43; in assay [2] (setting [14]), 8.40; in assay [2] (setting [15]), 8.40; in assay [3], 7.36; in assay [4] it was 6.90. In addition, the negative-log EC50 (pEC50) in [9] is 7.09; in assay [10], 8.96; in assay [11] (setting [16]) it was 8.20; in [11] (setting [17]) it was 7.24; in assay [11] (setting [18]) it was 8.21; in assay [11] (setting [19]), 8.20. In addition, the pEC50 in assay [12] was 8.23. The negative-log IC50 (pIC50) is 8.05 in assay [5], 7.24 in assay [7] and 7.47 in [8]. The “C316Y/1a Fold Resistance” value in [6] is 6 fold. In addition, the “Transient Replicon Fold Resistance C316Y/1a” value in assay [9] was 73 fold.
In the case of `CS(=O)(=O)N(CCCS(N)(=O)=O)c1cc2oc(-c3ccc(F)cc3)c(-c3ncc[nH]3)c2cc1C1CC1` [Example 80, 3-{[5-cyclopropyl-2-(4-fluorophenyl)-3-(1H-imidazol-2-yl)-1-benzofuran-6-yl](methylsulfonyl)amino}propane-1-sulfonamide], the pEC50 in [1] was 6.43; in assay [2] (setting [13]) it was 7.14; in [2] (setting [14]) it was 7.97; in [2] (setting [15]) it was 7.97; in assay [3], 6.68; in [4] it was 6.55. Moreover, the pEC50 in [9] is 6.79; in assay [10], 8.08; in [11] (setting [16]) it was 7.92; in [11] (setting [17]), 7.28; in assay [11] (setting [18]), 7.92; in assay [11] (setting [19]), 7.92. In assay [12], the pEC50 was 7.91. Further, the pIC50 is 8.30 in [5], 7.26 in assay [7] and 7.80 in assay [8]. Further, the “C316Y/1a Fold Resistance” value in assay [6] amounted to 11 fold. The “Transient Replicon Fold Resistance C316Y/1a” value in assay [9] is reported as 20 fold.
With `CS(=O)(=O)N(CCCCF)c1cc2oc(-c3ccc(F)cc3)c(-c3ncc[nH]3)c2cc1C1CC1` [Example 83, N-[5-cyclopropyl-2-(4-fluorophenyl)-3-(1H-imidazol-2-yl)-1-benzofuran-6-yl]-N-(4-fluorobutyl)methanesulfonamide], the pEC50 in [1] was 7.17; in [2] (setting [13]), 7.02; in assay [2] (setting [14]), 8.09; in [2] (setting [15]), 8.09; in assay [3] it was 7.33; in assay [4] it was 7.33. Besides, the pEC50 in assay [9] is 6.89; in assay [10] it was 8.22; in [11] (setting [16]) it was 8.16; in [11] (setting [17]), 7.05; in assay [11] (setting [18]), 8.16; in assay [11] (setting [19]), 8.16. In addition, the negative logarithm of the EC50 (pEC50) in [12] was 8.21. Further, the negative logarithm of the IC50 (pIC50) is 8.26 in assay [5], 7.10 in assay [7] and 7.59 in [8]. The “C316Y/1a Fold Resistance” value in assay [6] was determined as 14 fold. Also, the “Transient Replicon Fold Resistance C316Y/1a” value in [9] is recorded as 21 fold.
